Results taken from patent US9708316B2 (BRISTOL-MYERS SQUIBB COMPANY, priority 2014, dated 2017).

Tests used:
HIS-TGFβR1 T204D = biological target: T1, HIS-TGFβR1 T204D (Homo sapiens, UniProt P36897, T204D); assay: HTRF probe-displacement assay, HIS-TGFβR1 T204D; type: binding; conditions: read-out: TGFβR1 (μM) IC50
T1 sequence (P36897 34-503 T204D): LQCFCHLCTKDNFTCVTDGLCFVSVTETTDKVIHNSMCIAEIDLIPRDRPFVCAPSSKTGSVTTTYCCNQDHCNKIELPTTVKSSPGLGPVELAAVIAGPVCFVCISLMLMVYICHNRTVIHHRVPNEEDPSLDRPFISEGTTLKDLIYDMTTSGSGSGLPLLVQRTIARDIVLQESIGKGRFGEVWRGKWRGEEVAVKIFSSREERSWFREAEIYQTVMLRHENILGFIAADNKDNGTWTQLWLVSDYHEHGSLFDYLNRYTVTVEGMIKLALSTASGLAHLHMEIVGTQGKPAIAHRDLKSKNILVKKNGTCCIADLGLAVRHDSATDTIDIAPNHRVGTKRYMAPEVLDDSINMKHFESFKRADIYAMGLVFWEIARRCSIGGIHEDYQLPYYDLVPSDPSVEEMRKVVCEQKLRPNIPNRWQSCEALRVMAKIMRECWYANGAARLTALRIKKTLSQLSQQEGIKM

HIS-TGFβR2 WT = HIS-TGFβR2 WT (Homo sapiens, UniProt P37173); assay: HTRF probe-displacement assay, HIS-TGFβR2 WT; type: binding
Chain of HIS-TGFβR2 WT (P37173 23-567): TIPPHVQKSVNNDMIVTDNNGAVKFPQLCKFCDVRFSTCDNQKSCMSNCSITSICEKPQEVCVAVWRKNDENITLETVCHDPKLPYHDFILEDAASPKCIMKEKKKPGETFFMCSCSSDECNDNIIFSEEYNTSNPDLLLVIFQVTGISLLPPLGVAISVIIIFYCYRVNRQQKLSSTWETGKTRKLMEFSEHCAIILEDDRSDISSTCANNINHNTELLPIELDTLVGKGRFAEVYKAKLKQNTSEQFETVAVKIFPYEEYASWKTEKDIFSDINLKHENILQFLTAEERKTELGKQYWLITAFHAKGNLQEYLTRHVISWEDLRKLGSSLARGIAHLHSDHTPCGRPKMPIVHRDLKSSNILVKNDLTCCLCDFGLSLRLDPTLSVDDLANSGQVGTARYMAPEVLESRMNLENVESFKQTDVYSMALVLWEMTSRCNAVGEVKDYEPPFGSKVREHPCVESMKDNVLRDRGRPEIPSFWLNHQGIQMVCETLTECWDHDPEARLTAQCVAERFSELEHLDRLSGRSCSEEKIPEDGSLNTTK

Row | Compound | IC50 (HIS-TGFβR1 T204D) | IC50 (HIS-TGFβR2 WT)
1 | CC(=O)Nc1cc(-c2[nH]c3cc(Cl)cnc3c2-c2cc(C)c(F)cn2)ccn1 [Example 44, N-{4-[6-Chloro-3-(5-fluoro-4-methylpyridin-2-yl)-1H-pyrrolo[3,2-b]pyridin-2-yl]pyridin-2-yl}acetamide] | 0.027 µM | 0.34 µM
2 | COc1ccc(-c2c(-c3ccnc(NC(C)=O)c3)n(C)c3cccnc23)cn1 [Example 54, N-{4-[3-(6-Methoxypyridin-3-yl)-1-methyl-1H-pyrrolo[3,2-b]pyridin-2-yl]pyridin-2-yl}acetamide] | 0.021 µM | 3.61 µM
3 | CC(=O)Nc1cc(-c2[nH]c3cccnc3c2-c2ccc3[nH]ccc3c2)ccn1 [Example 20, N-{4-[3-(1H-Indol-5-yl)-1H-pyrrolo[3,2-b]pyridin-2-yl]pyridin-2-yl}acetamide] | 0.005 µM | 1.69 µM
4 | COc1ccc(-c2c(-c3ccnc(NC(C)=O)c3)[nH]c3c(C(C)O)ccnc23)cn1 (stereo not shown) [Example 230, N-(4-(7-(1-Hydroxyethyl)-3-(6-methoxypyridin-3-yl)-1H-pyrrolo[3,2-b]pyridin-2-yl)pyridin-2-yl)acetamide] | 0.0024 µM | 0.037 µM
5 | COc1ccc(-c2c(-c3ccnc(NC(C)=O)c3)[nH]c3cc(N4CCOCC4)cnc23)nc1 [Example 164, N-(4-(3-(5-Methoxypyridin-2-yl)-6-morpholino-1H-pyrrolo[3,2-b]pyridin-2-yl)pyridin-2-yl)acetamide] | 0.0053 µM | > 15 µM
6 | CC(=O)Nc1cc(-c2[nH]c3cc(F)cnc3c2-c2nc(C#N)cs2)ccn1 [Example 226, N-(4-(3-(4-Cyanothiazol-2-yl)-6-fluoro-1H-pyrrolo[3,2-b]pyridin-2-yl)pyridin-2-yl)acetamide] | 0.0041 µM | 1.55 µM
7 | COc1ccc(-c2c(-c3ccnc(NC(C)=O)c3)[nH]c3c(OC)ccnc23)cn1 [Example 269, N-(4-(7-Methoxy-3-(6-methoxypyridin-3-yl)-1H-pyrrolo[3,2-b]pyridin-2-yl)pyridin-2-yl)acetamide] | 0.067 µM | 1.04 µM
8 | CC(=O)Nc1cc(-c2[nH]c3c(C)ccnc3c2-c2nc(C(F)F)cs2)ccn1 [Example 220, N-(4-(3-(4-(Difluoromethyl)thiazol-2-yl)-7-methyl-1H-pyrrolo[3,2-b]pyridin-2-yl)pyridin-2-yl)acetamide] | 0.0005 µM | 1.38 µM
9 | COc1ccc(-c2c(-c3ccnc(NC(C)=O)c3)[nH]c3cc(Br)cnc23)nc1 [Example 83, N-{4-[6-Bromo-3-(5-methoxypyridin-2-yl)-1H-pyrrolo[3,2-b]pyridin-2-yl]pyridin-2-yl}acetamide] | 0.002 µM | > 15 µM

Further molecules by falling IC50 (HIS-TGFβR1 T204D), results first:

Row | IC50 (HIS-TGFβR1 T204D) | IC50 (HIS-TGFβR2 WT) | Compound
10 | 0.0274 µM | > 15 µM | COc1ccc(-c2c(-c3ccnc(NC(C)=O)c3)[nH]c3cc(Cl)cnc23)nc1Cl [Example 180, N-(4-(6-Chloro-3-(6-chloro-5-methoxypyridin-2-yl)-1H-pyrrolo[3,2-b]pyridin-2-yl)pyridin-2-yl)acetamide]
11 | 0.019 µM | 15.5 µM | C[C@H](O)C(=O)Nc1cc(-c2[nH]c3cc(Cl)cnc3c2-c2ccc(F)cn2)ccn1 [Example 73]
12 | 0.002 µM | > 15 µM | COc1ccc(-c2c(-c3ccnc(NC(C)=O)c3)[nH]c3cc(OC4COC4)cnc23)nc1 [Example 98, N-(4-(3-(5-Methoxypyridin-2-yl)-6-(oxetan-3-yloxy)-1H-pyrrolo[3,2-b]pyridin-2-yl)pyridin-2-yl)acetamide]
13 | 0.002 µM | 7.78 µM | COc1ccc(-c2c(-c3ccnc(NC(C)=O)c3)[nH]c3cc(C(=O)C(F)(F)F)cnc23)nc1 [Example 296, N-(4-(3-(5-Methoxypyridin-2-yl)-6-(2,2,2-trifluoroacetyl)-1H-pyrrolo[3,2-b]pyridin-2-yl)pyridin-2-yl)acetamide]
14 | 0.0014 µM | 4.06 µM | CC(=O)Nc1cc(-c2[nH]c3c(C(C)F)ccnc3c2-c2cccc(C(F)F)n2)ccn1 (stereo not shown) [Example 233, N-(4-(3-(6-(Difluoromethyl)pyridin-2-yl)-7-(1-fluoroethyl)-1H-pyrrolo[3,2-b]pyridin-2-yl)pyridin-2-yl)acetamide]
